Data published in patent US20240341340A1, “EYE DAMAGE PREVENTION COMPOSITION CONTAINING DENDROPANAX MORBIFERA LEV. EXTRACT” (KOREA GINSENG CORP., priority 2021, published 2024).

Tests used:
Type in all cases: in vivo, mouse
[1] = tested on: BALB/c mice, white LED light-induced loss of optic nerve cells; assay: Electroretinogram (wave a and wave b) in light-induced macular degeneration animal model; settings: 6.5 mg/kg/day oral
Description: An electroretinogram (ERG) is a degree of electric potential of the retinal optic nerve representing an electrical signal generated by a response of the optic nerve to light, and is used as an index to determine the presence/absence of retinal damage or disease. The electroretinogram consists of wave a and wave b, in which the wave a is generated by photoreceptors, and the wave b is generated by depolarization of bipolar cells in the inner nuclear layer of the retina by light stimulation. In order to confirm whether a Dendropanax morbifera extract has the effect of improving the decrease of activity of visual cells in an animal model in which optic nerve cell damage was caused by the irradiation of an excessive light source and loss of optic nerve cells similar to dry macular degeneration was induced, the electroretinogram was measured. […] An appropriate amount of 1% methylcellulose was added to the eyeballs while maintaining body temperature under general anesthesia, and the gold wire loops recording electrode was grounded to the cornea, and the reference electrode was placed on the cheek area, and the ground electrode was grounded to the tail, and then the electroretinogram was measured using Retiport (Roland Consult, Germany). […]

[2] = tested on: BALB/c mice, white LED light-induced loss of optic nerve cells; assay: Outer nuclear layer thickness in light-induced macular degeneration animal model; settings: 6.5 mg/kg/day oral for 7 days
Description: When drusen accumulates in the macular area due to dry macular degeneration, the macular area is photooxidized and causes damage to surrounding tissues and optic nerve cells, thereby resulting in a decrease of visual acuity, and in severe cases, geographic atrophy occurs, a condition in which optic nerve cells are lost and retinal apoptosis is induced. In order to determine whether a Dendropanax morbifera extract has the effect of improving damage or deformation of photoreceptor cells in an animal model where optic nerve cell damage was caused by excessive irradiation of a light source including blue light and loss of optic nerve cells similar to dry macular degeneration, the changes in the thickness of outer nuclear layer (ONL) of the retina were measured. Specifically, 6-week-old male BALB/c mice (Orient Bio Inc.) were acclimatized for one week and then subjected to dark adaptation in a dark place without light for 14 hours from the evening before white LED exposure containing blue light, and then, their pupils were dilated with 1% tropicamide eye drop the next morning. […] The slide sections were stained with hematoxylin & eosin (H&E) and observed under an optical microscope, and damage or deformation of photoreceptor cells was evaluated by measuring changes in the thickness of the outer nuclear layer of retinal tissue

[3] = tested on: BALB/c mice, MNU-induced loss of optic nerve cells; assay: Outer nuclear layer thickness in N-methyl-N-nitrosourea (MNU) animal model; settings: 6.5 and 13 mg/kg/day oral for 7 days
Description: In order to confirm the effect of the Dendropanax morbifera extract on improving damage or deformation of photoreceptor cells, N-methyl-N-nitrosourea (MNU) toxic to photoreceptor cells was administered, and the changes in thickness of the outer nuclear layer (ONL) of the retina were measured in an animal model where loss of optic nerve cells similar to dry macular degeneration was induced. Specifically, 6-week-old male BALB/c mice (Orient Bio Inc.) were acclimatized for one week, and N-methyl-N-nitrosourea (MNU) (Sigma, USA) was prepared to a concentration of 1% in a 0.05% acetic acid solution and was administered intraperitoneally to mice at a concentration of 1%, 60 mg/kg per individual, in which only the same amount of 0.05% acetic acid was administered intraperitoneally in the negative control. The test drug was orally administered once daily for 7 days from the same day after administration of N-methyl-N-nitrosourea. […] The slide sections were stained with hematoxylin & eosin (H&E) and observed under an optical microscope, and damage or deformation of photoreceptor cells was evaluated by measuring changes in the thickness of the outer nuclear layer of retinal tissue.

O=C(/C=C/c1ccc(O)c(O)c1)O[C@@H]1C[C@@](O)(C(=O)O)C[C@@H](O)[C@@H]1O [neochlorogenic acid, Neochlorogenic acid]
not statistically significant: improvement of retinal nerve conduction (positive control) [1] | increase of thickness of the outer nuclear layer (positive control) [2] | increase of thickness of the outer nuclear layer (positive control) [3]
